Source: US20150307520A1, “NOVEL HETEROARYL AND HETEROCYCLE COMPOUNDS, COMPOSITIONS AND METHODS THEREOF” (HUTCHISON MEDIPHARMA LIMITED, priority 2012, published 2015)

Legend:
Type in all cases: biochemical
p110β/p85α = p110β/p85α (Homo sapiens, UniProt P42338); assay: Transcreener KINASE Assay, kinase inhibition of p110β/p85α; conditions: for PI3Kβ IH % @ 1 uM: 1 uM test compound; for IC50: read-out: PI3Kβ IC50
Procedure, shortened: (§1)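 ADP production was read by fluorescence polarization immunoassay (60 min detection step) after an 80 min room-temperature reaction of p110/p85α enzyme, compound in 2% DMSO, and PIP2/ATP solution (30 uM/10 uM as added) in HEPES buffer with MgCl2 and DTT. IC50s came from inhibition versus the DMSO control.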

p110δ/p85α = p110δ/p85α (Homo sapiens, UniProt O00329); assay: Transcreener KINASE Assay, kinase inhibition of p110δ/p85α; conditions: for PI3Kδ IH % @ 1 uM: 1 uM test compound; for IC50: read-out: PI3Kδ IC50
Chain of p110δ/p85α (O00329 whole entry): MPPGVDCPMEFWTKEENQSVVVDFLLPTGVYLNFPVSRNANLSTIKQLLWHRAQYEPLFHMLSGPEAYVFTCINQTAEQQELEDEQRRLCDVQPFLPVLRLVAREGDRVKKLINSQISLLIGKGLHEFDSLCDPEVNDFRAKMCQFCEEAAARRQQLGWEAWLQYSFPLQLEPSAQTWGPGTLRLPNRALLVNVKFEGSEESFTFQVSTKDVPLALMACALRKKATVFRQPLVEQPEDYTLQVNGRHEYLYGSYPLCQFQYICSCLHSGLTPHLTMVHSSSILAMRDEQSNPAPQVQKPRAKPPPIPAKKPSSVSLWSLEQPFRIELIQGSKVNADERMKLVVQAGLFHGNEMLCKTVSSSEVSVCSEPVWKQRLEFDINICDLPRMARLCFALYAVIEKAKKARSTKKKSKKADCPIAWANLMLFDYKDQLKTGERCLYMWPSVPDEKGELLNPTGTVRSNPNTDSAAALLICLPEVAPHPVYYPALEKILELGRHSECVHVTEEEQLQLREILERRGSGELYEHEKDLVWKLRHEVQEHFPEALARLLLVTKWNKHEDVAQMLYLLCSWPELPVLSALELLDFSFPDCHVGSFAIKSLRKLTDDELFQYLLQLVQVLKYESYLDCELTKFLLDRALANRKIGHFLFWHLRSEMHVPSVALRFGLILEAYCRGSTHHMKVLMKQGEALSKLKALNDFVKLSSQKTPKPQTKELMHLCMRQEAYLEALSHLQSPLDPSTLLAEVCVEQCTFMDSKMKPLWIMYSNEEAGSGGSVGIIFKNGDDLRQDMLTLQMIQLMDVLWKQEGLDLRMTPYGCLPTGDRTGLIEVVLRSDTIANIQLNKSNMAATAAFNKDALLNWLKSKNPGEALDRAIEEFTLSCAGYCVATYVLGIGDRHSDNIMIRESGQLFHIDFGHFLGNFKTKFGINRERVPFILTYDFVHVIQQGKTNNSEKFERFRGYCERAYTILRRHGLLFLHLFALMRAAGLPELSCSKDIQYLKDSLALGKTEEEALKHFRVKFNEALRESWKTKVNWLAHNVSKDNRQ
Chain of p110δ/p85α (P27986 whole entry partner): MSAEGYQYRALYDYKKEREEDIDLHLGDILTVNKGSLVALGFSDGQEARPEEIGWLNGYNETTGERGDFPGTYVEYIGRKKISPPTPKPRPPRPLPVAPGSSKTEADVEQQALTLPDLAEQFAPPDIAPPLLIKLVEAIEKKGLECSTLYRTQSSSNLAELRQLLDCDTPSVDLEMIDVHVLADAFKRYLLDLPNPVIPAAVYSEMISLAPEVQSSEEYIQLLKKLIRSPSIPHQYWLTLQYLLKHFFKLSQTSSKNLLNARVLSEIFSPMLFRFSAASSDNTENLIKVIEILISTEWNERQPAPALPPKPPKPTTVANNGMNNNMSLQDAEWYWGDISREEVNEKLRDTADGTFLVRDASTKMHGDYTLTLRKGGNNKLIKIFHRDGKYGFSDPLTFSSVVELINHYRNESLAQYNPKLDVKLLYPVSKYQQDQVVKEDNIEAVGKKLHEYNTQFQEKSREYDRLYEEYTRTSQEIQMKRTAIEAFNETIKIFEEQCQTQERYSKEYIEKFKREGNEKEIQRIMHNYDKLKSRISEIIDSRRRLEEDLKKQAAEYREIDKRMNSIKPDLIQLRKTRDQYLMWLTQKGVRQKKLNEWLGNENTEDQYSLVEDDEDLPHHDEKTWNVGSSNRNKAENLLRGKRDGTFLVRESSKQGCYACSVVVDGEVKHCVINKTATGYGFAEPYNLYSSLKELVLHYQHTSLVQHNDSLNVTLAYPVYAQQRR
Procedure, shortened: as §1

p110γ = p110γ (Homo sapiens, UniProt P48736); assay: Transcreener KINASE Assay, kinase inhibition of p110γ; conditions: for PI3Kγ IH % @ 1 uM: 1 uM test compound; for IC50: read-out: PI3Kγ IC50
Chain of p110γ (P48736 whole entry, canonical isoform): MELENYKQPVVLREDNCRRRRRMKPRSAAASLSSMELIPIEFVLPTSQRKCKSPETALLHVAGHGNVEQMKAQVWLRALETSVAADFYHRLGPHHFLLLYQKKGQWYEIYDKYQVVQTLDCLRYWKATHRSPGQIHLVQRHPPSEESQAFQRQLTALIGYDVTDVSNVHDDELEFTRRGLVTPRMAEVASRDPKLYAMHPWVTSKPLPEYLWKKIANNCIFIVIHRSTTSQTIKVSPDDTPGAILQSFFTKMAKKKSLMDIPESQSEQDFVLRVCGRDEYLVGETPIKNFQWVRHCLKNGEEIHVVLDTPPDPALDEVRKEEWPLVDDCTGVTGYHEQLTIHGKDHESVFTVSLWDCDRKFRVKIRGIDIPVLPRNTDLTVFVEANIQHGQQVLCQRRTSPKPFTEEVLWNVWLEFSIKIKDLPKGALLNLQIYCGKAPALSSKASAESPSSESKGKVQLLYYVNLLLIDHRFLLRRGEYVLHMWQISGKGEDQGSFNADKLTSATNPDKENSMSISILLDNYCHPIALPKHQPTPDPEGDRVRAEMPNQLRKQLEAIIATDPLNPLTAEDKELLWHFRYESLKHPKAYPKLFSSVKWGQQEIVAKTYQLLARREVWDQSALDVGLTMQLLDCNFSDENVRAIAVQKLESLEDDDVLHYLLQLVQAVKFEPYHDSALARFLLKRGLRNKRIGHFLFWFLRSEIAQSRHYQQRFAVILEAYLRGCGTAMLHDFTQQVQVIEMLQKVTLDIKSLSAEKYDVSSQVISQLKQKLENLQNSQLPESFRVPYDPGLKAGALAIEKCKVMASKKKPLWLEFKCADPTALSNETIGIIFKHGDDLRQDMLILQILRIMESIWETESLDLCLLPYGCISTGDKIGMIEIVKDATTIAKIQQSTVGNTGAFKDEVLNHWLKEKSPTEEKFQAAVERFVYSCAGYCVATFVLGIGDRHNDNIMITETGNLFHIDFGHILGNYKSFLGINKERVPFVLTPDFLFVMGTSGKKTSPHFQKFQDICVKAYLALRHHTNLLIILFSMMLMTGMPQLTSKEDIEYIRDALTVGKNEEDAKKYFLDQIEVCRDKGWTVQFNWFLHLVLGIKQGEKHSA
Procedure, shortened: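 ADP-detecting fluorescence polarization immunoassay run as two-step endpoint: kinase reaction for 80 min, detection for 60 min, both at room temperature. Enzymes are recombinant p110 isoforms with p85α, except p110γ. IC50s derived from fitted inhibition curves.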

Chain of p110β/p85α (P42338 whole entry): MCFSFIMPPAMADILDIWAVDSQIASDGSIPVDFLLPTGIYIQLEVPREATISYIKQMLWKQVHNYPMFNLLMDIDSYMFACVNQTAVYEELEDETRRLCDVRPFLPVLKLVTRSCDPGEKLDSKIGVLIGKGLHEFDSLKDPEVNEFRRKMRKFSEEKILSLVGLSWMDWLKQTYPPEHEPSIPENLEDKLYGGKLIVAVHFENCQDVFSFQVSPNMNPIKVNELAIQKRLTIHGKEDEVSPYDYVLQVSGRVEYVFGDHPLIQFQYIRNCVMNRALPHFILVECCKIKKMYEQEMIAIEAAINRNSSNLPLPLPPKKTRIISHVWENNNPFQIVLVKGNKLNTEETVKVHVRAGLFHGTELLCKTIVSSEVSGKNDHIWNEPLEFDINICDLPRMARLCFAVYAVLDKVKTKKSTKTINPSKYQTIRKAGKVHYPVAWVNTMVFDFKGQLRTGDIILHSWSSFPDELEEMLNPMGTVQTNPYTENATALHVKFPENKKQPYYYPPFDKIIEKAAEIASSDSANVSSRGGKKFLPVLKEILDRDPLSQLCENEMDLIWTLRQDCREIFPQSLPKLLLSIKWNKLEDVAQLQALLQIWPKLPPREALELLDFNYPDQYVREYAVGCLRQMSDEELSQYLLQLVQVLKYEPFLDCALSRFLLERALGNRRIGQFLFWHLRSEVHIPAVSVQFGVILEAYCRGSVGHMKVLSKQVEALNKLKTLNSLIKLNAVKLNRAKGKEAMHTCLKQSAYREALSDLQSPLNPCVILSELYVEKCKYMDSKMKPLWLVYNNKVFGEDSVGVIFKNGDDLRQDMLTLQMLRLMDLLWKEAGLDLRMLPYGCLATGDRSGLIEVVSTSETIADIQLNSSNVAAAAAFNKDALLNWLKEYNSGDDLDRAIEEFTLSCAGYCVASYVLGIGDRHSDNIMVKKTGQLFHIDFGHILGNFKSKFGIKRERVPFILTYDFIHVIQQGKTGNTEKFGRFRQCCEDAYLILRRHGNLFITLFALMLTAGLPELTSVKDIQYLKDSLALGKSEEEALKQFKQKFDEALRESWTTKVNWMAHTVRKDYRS
Chain of p110β/p85α (P27986 2-724 partner): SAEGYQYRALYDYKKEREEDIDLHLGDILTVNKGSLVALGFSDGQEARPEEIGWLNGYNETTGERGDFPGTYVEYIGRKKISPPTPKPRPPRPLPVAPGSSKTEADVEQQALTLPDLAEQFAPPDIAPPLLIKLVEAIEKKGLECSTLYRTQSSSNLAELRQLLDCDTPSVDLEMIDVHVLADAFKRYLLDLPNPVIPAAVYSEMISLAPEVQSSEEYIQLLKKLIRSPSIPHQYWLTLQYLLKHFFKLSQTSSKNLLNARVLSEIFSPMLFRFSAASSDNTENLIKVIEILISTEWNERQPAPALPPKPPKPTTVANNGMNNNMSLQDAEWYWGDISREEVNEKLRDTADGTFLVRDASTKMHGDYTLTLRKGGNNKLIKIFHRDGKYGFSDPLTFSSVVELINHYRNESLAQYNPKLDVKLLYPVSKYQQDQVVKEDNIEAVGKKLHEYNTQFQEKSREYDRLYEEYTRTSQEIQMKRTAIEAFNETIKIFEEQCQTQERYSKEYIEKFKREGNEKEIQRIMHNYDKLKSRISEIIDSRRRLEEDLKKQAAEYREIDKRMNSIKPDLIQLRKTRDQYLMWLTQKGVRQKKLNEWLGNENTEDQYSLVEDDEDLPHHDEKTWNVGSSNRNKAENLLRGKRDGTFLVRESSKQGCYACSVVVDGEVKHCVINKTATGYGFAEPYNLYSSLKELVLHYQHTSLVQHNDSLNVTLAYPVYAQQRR

Row | SMILES | PI3Kβ IH % @ 1 uM (p110β/p85α) | IC50 (p110β/p85α) | PI3Kδ IH % @ 1 uM (p110δ/p85α) | IC50 (p110δ/p85α) | PI3Kγ IH % @ 1 uM (p110γ) | IC50 (p110γ)
1 | C[S@+]([O-])c1c[nH]c2ncnc(N3CCC[C@H]3c3nn4ccc(F)c4c(=O)n3-c3ccccc3)c12 [Compound 396, 5-fluoro-2-((S)-1-(5-((S)-methylsulfinyl)-7H-pyrrolo[2,3-d]pyrimidin-4-yl)pyrrolidin-2-yl)-3-phenylpyrrolo[2,1-f][1,2,4]triazin-4(3H)-one] | 86.1% | 369 nM | >100% | 2 nM | 94.1% | 17 nM
2 | C[S@@+]([O-])c1c[nH]c2ncnc(N3CCC[C@H]3c3nn4ccc(F)c4c(=O)n3-c3ccccc3)c12 [Compound 397, 5-fluoro-2-((S)-1-(5-((R)-methylsulfinyl)-7H-pyrrolo[2,3-d]pyrimidin-4-yl)pyrrolidin-2-yl)-3-phenylpyrrolo[2,1-f][1,2,4]triazin-4(3H)-one] | 52.0% | 2350 nM | >100% | 11 nM | 96.5% | 13 nM
3 | CC(=O)c1c(C)nc(N)nc1N1CC[C@H]1c1nn2ccc(Cl)c2c(=O)n1-c1ccccc1 [Compound 398] | 22.6% |  | 99.1% | 25 nM | >100% | 18 nM
4 | C[S+]([O-])c1cnc(N)nc1N1CC[C@H]1c1nn2ccc(Cl)c2c(=O)n1-c1ccccc1 (some centres unmarked) [Compound 399] | 3.5% |  | 35.1% |  | 70.3% | 
5 | O=C1C[C@@H](c2nn3ccc(F)c3c(=O)n2-c2ccccc2)N(c2ncnc3[nH]cnc23)C1 [Compound 400] | 22.2% |  | >100% | 12 nM | 70.4% | 81 nM
6 | N#Cc1cnc(N)nc1N1CC(=O)C[C@H]1c1nn2ccc(F)c2c(=O)n1-c1ccccc1 [Compound 401] | 46.7% |  | >100% | 4 nM | 67.8% | 189 nM
7 | CC(=O)c1c[nH]c2ncnc(N3CC(=O)C[C@H]3c3nn4ccc(Cl)c4c(=O)n3-c3ccccc3)c12 [Compound 402] | 21.7% |  | 93.4% | 67 nM | 65.8% | 
8 | N#Cc1cnc(N)nc1N1CC(=O)C[C@H]1c1nn2ccc(Cl)c2c(=O)n1-c1ccccc1 [Compound 403] | 71.7% | 123 nM | 98.1% | 1 nM | 93.1% | 7 nM
9 | N#Cc1cnc(N)nc1N1CC(=O)C[C@H]1c1nn2ccc(Cl)c2c(=O)n1-c1cccc(F)c1 [Compound 404] | 31.1% |  | 93.7% | 3 nM | 95.6% | 10 nM
10 | CC(=O)c1c[nH]c2ncnc(N[C@H](C)c3cn4ccc(F)c4c(=O)n3-c3ccccc3)c12 [Compound 405, (R)-3-(1-((5-acetyl-7H-pyrrolo[2,3-d]pyrimidin-4-yl)amino)ethyl)-8-fluoro-2-phenylpyrrolo[1,2-a]pyrazin-1(2H)-one] | 86.5% | 332 nM | >100% | 3 nM | 92.3% | 2 nM
11 | CC(=O)c1c[nH]c2ncnc(N[C@@H](C)c3cn4ccc(F)c4c(=O)n3-c3ccccc3)c12 [Compound 406, (S)-3-(1-((5-acetyl-7H-pyrrolo[2,3-d]pyrimidin-4-yl)amino)ethyl)-8-fluoro-2-phenylpyrrolo[1,2-a]pyrazin-1(2H)-one] | 7.7% |  | 90.0% | 73 nM | 35.2% | 
12 | C[C@H]1CN(c2nc(N)ncc2C#N)C1c1nn2ccc(F)c2c(=O)n1-c1ccccc1 (some centres unmarked) [Compound 430] | 28.1% |  | 93.9% | 13 nM | 87.3% | 52 nM
13 | C[C@H]1CN(c2nc(N)ncc2C#N)C1c1nn2ccc(Cl)c2c(=O)n1-c1ccc(F)cc1 (some centres unmarked) [Compound 432] | 43.2% |  | 81.3% | 160 nM | 89.0% | 9 nM
14 | CC(=O)c1cnc(N)nc1NC(C)c1cn2ccc(Cl)c2c(=O)n1-c1cccc(F)c1 (centres unmarked) [Compound 435] | 91.2% | 14 nM | 99.7% | 3 nM | 83.7% | 
15 | Cc1nc(N)nc(N2C[C@H](C)C2c2nn3ccc(Cl)c3c(=O)n2-c2ccccc2)c1C#N (some centres unmarked) [Compound 437] | 97.1% | 27 nM | 96.3% | 1 nM | 91.3% | 2 nM
16 | CC(=O)c1cnc(N)nc1N1C[C@H](C)C1c1nn2ccc(F)c2c(=O)n1-c1ccc(F)cc1 (some centres unmarked) [Compound 438] | 79.3% | 273 nM | 91.2% | 23 nM | 91.4% | 6 nM
17 | Cc1nc(N)nc(N2C[C@H](C)C2c2nn3ccc(Cl)c3c(=O)n2-c2ccc(F)cc2)c1C#N (some centres unmarked) [Compound 439] | 93.0% | 22 nM | 98.1% | 2 nM | 92.4% | 3 nM
18 | CC(=O)c1cnc(N)nc1N1CC[C@H]1c1nn2ccc(Cl)c2c(=O)n1-c1cccc(F)c1 [Compound 440] | 20.3% |  | 95.2% | 11 nM | 95.8% | 17 nM
19 | Cc1nc(N)nc(N2CC[C@H]2c2nn3ccc(Cl)c3c(=O)n2-c2cccc(F)c2)c1C#N [Compound 441] | 56.2% |  | 95.5% | 2 nM | 97.7% | 14 nM
20 | Cc1nc(N)nc(N2CC[C@H]2c2nn3ccc(Cl)c3c(=O)n2-c2ccc(F)cc2)c1C#N [Compound 442] | 76.1% |  | 94.2% | 12 nM | 94.6% | 1 nM
21 | CC(=O)c1c[nH]c2ncnc(N3CC(=O)C[C@H]3c3nn4ccc(F)c4c(=O)n3-c3ccccc3)c12 [Compound 445] | 22.3% |  | 77.5% | 240 nM | 4.3% | 
22 | CC(=O)c1cnc(N)nc1N1CC(=O)C[C@H]1c1nn2ccc(F)c2c(=O)n1-c1ccccc1 [Compound 446] | 20.1% |  | 85.8% | 319 nM | 40.0% | 
23 | CC(=O)c1cnc(N)nc1N[C@@H](C)c1cc2ncc(Cl)n2c(=O)n1-c1ccccc1 [Compound 447, (S)-7-(1-((5-acetyl-2-aminopyrimidin-4-yl)amino)ethyl)-3-chloro-6-phenylimidazo[1,2-c]pyrimidin-5(6H)-one] | 95.8% | 22 nM | 99.5% | 0.4 nM | >100% | 4 nM
24 | Cc1nc(N)nc(N2C[C@H](C)[C@H]2c2nn3ccc(F)c3c(=O)n2-c2ccc(F)cc2)c1C#N [Compound 463] | 89.6% | 50 nM | >100% | 4 nM | >100% | 5 nM
25 | C[C@H]1CN(c2nc(N)ncc2Cl)[C@@H]1c1nn2ccc(F)c2c(=O)n1-c1ccccc1 [Compound 464] | 33.0% |  | >100% | 5 nM | 80.6% | 138 nM
